Experimental data as given in patent US20230346735A1, “Nutritional Composition Comprising Carnitine and Method for Treating or Preventing an Infection in a Mammal” (priority 2020, published 2023).

Test system: ACE-2
Test: ACE-2 surface protein in Calu-3 cells, flow cytometry
Assay type: cell-based, human
Conditions: Calu-3, 100, 500 and 1000 µM, less than L-carnitine
Procedure: ACE-2 surface expression protein in Calu-3 cells was evaluated using FACS flow cytometry sorting. […] Cells were detached with PBS/EDTA at room temperature. FBS-containing growth media was added to cells to inactivate TE. Cells were spun for 5 min at […]. Supernatant was removed and cells were washed twice in flow buffer (PBS+0.2% FBS). Between 100,000-200,000 cells were stained for ACE-2 and BST2 (absent in Calu-3and used as a control) for 30 min on ice using goat anti-ACE-2 (R&D Systems; AF933) and PE-conjugated BST2 (BioLegend; Cat # 348406). Cells were washed once and stained with Alexa Fluor 647 donkey anti-goat for 30 min on ice. Cells were washed once, resuspended in PBS/EDTA and samples were acquired on a FACS LSR Fortessa cytometer (BD Bioscience). Data were analyzed using Flowjo (Version 10.1).
The testing was repeated with D-Carnitine as well. Cells were either stained for ACE2 using either anti-ACE2 Ab, anti-BST2 Ab or the combination or both followed by secondary Ab isotype. […] The table represents the fluorescence counts.

SMILES: C[N+](C)(C)C[C@@H](O)CC(=O)[O-] [D-carnitine]
- ACE-2 surface protein levels: decreased significantly
